Where a name gives a salt, the structure may show the parent alone.
Legend:
Experiment in all cases: PI3K enzyme inhibitory activity in the cell free assay (ADP-Glo Kinase Assay)
Assay type in all cases: biochemical
PI3Kα = target: T1, PI3Kα (Homo sapiens, UniProt P42336); settings: human recombinant PI3Kα, ATP 50 μM; read-out: PI3K alpha inhibition
T1 construct: purchased Millipore Ltd (Billerica, Mass.)

PI3Kγ = target: T2, PI3Kγ (Homo sapiens, UniProt P48736); settings: human recombinant PI3Kγ, ATP 30 μM; read-out: PI3K gamma inhibition
T2 construct: purchased Millipore Ltd (Billerica, Mass.)
T2 sequence (P48736 whole entry): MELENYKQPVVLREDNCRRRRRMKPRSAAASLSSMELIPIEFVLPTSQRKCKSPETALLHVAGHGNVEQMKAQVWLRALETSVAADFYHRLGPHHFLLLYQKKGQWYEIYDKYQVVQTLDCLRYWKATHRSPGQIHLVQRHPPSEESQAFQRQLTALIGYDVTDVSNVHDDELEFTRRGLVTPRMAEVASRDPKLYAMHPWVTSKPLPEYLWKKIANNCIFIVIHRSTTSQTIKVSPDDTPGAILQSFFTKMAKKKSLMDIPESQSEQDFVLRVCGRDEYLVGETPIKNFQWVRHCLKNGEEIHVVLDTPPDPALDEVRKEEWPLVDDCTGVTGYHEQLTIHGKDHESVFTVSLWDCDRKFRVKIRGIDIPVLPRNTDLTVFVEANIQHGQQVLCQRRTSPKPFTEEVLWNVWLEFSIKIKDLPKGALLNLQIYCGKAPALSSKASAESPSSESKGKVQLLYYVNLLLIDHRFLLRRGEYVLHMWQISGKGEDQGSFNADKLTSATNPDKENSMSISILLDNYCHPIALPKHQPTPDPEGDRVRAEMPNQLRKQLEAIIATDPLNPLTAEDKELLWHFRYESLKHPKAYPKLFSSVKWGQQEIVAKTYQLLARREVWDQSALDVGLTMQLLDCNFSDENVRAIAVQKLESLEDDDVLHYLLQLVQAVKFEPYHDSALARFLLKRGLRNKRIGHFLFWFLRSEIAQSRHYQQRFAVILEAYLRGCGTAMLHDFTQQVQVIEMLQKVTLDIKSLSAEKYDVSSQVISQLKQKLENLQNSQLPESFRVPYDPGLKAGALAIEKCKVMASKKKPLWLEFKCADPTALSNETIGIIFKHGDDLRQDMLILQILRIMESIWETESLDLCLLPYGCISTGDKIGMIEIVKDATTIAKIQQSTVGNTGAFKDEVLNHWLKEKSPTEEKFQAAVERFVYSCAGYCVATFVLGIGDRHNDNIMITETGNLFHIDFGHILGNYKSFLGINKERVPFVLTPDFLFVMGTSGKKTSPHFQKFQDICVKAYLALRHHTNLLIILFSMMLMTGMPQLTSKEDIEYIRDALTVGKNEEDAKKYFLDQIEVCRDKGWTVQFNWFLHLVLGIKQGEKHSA

PI3Kβ = target: T3, PI3Kβ (Homo sapiens, UniProt P42338); settings: human recombinant PI3Kβ, ATP 100 μM; read-out: PI3K beta inhibition
T3 construct: purchased Millipore Ltd (Billerica, Mass.)
T3 sequence (P42338 whole entry): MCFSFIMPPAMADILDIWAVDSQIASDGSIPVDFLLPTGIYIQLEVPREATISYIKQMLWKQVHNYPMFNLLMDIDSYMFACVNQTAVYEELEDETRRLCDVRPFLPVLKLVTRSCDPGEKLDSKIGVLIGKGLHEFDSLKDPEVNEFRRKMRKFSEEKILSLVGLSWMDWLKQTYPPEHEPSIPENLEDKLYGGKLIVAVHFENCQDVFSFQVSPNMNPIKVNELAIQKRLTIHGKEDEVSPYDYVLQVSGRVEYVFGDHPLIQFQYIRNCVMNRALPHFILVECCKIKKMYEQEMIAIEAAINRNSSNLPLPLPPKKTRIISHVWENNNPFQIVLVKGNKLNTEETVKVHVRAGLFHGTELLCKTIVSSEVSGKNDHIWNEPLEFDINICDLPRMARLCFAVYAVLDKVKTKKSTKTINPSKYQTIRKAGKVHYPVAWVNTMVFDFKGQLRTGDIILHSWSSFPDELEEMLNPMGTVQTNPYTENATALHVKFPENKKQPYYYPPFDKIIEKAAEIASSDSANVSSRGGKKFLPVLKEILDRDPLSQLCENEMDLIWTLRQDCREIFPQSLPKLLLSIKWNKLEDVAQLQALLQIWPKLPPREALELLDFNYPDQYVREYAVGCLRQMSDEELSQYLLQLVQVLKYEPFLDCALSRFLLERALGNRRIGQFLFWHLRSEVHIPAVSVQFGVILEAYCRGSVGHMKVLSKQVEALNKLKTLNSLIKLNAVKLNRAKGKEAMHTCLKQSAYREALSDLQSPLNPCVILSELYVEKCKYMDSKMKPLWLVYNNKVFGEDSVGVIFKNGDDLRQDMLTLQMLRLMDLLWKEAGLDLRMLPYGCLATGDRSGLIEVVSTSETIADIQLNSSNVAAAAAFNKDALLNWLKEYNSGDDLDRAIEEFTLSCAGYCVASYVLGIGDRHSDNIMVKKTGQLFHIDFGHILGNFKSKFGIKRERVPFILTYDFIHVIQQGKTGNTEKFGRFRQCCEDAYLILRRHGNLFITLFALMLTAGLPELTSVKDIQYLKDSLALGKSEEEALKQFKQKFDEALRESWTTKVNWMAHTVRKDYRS

PI3Kδ = target: T4, PI3Kδ (Homo sapiens, UniProt O00329); settings: human recombinant PI3Kδ, ATP 80 μM; read-out: PI3K delta inhibition
T4 construct: purchased Millipore Ltd (Billerica, Mass.)
T4 sequence (O00329 1-1044): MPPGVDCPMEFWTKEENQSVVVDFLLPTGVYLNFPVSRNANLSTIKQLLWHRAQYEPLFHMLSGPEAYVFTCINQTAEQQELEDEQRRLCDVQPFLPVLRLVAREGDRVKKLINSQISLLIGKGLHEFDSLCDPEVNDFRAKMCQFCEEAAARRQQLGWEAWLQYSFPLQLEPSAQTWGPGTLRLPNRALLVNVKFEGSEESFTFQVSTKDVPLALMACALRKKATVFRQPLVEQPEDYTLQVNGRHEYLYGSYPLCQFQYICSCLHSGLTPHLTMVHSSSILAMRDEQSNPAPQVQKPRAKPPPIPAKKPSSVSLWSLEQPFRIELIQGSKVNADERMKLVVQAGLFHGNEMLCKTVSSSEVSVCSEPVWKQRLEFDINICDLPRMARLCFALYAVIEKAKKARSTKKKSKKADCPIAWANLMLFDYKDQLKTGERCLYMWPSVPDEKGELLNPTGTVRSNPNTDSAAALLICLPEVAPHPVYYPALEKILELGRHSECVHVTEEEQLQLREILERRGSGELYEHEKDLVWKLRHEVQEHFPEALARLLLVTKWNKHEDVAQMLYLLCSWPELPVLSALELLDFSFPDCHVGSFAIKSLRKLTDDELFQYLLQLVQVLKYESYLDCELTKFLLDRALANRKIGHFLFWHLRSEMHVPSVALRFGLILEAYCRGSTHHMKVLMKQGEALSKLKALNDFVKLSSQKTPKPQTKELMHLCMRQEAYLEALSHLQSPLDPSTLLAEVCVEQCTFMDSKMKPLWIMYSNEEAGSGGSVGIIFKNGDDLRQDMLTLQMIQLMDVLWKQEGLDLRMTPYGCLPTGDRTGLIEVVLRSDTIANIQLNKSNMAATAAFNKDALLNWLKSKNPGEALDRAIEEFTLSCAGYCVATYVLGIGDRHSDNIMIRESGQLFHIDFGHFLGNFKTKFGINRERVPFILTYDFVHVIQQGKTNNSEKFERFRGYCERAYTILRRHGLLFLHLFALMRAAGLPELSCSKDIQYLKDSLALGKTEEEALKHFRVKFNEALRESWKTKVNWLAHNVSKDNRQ

T1 sequence (P42336 whole entry): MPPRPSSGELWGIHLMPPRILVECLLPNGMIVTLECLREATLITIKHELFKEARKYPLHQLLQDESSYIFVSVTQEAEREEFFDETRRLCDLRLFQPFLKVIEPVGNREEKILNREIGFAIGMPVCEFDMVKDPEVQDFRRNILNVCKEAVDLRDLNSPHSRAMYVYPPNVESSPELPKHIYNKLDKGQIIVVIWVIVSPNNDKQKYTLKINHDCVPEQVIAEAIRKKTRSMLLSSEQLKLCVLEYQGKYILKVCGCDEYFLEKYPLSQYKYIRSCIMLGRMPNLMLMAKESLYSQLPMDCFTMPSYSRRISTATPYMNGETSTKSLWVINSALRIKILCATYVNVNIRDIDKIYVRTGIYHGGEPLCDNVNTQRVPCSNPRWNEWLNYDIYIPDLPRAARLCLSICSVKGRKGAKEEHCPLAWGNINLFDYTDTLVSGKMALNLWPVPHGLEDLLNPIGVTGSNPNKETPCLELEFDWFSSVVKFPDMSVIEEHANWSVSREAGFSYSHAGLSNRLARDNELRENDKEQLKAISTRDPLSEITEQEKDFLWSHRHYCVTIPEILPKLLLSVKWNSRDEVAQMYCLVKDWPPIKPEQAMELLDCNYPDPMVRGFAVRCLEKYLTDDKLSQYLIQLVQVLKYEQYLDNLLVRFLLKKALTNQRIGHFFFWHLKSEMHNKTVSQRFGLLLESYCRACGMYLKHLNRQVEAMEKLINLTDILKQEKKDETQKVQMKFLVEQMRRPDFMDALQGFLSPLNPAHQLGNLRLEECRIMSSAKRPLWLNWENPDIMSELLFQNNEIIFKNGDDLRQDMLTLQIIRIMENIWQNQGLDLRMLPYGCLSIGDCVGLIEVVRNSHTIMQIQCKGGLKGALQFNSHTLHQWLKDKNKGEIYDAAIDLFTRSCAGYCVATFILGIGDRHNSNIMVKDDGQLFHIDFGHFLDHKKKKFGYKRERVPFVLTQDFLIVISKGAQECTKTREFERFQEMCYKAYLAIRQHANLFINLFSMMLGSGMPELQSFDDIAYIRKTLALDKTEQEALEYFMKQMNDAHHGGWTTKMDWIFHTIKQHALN

Compound	IC50 (PI3Kα) [nM]	IC50 (PI3Kγ) [nM]	IC50 (PI3Kβ) [nM]	IC50 (PI3Kδ) [nM]
CC(=O)Nc1ncc(-c2nn(C(C)c3oc(=O)c4ccccc4c3-c3ccccc3)c3ncnc(N)c23)s1 (stereo not drawn) [Example 62, N-(5-(4-amino-1-(1-(1-oxo-4-phenyl-1H-isochromen-3-yl)ethyl)-1H-pyrazolo[3,4-d]pyrimidin-3-yl)thiazol-2-yl)acetamide]	10 to 1000	10 to 1000	10 to 1000	< 10
Nc1ncnc2c1c(-c1cc(O)cc(F)c1)nn2CC1=C(c2ccccc2)c2ccccc2CO1 [Example 128, 3-(4-amino-1-((4-phenyl-1H-isochromen-3-yl)methyl)-1H-pyrazolo[3,4-d]pyrimidin-3-yl)-5-fluorophenol]	> 1000	10 to 1000	10 to 1000	10 to 1000
CC(c1oc(=O)c2ccccc2c1-c1ccc(CN2CCOCC2)s1)n1nc(-c2cc(O)cc(F)c2)c2c(N)ncnc21 (single isomer, unassigned) [Example 49a, 3-(1-(4-amino-3-(3-fluoro-5-hydroxyphenyl)-1H-pyrazolo[3,4-d]pyrimidin-1-yl)ethyl)-4-(5-(morpholinomethyl)thiophen-2-yl)-1H-isochromen-1-one hydrochloride]	10 to 1000	10 to 1000	10 to 1000	< 10
CC(=O)N1CC=C(c2c(C(C)n3nc(-c4cc(O)cc(F)c4)c4c(N)ncnc43)oc(=O)c3ccccc23)CC1 (stereo not drawn) [Example 72, 4-(1-acetyl-1,2,3,6-tetrahydropyridin-4-yl)-3-(1-(4-amino-3-(3-fluoro-5-hydroxyphenyl)-1H-pyrazolo[3,4-d]pyrimidin-1-yl)ethyl)-1H-isochromen-1-one]	10 to 1000	10 to 1000	10 to 1000	< 10

Other lines, results leading:

IC50 (PI3Kα) [nM]	IC50 (PI3Kγ) [nM]	IC50 (PI3Kβ) [nM]	IC50 (PI3Kδ) [nM]	Compound
> 1000	> 1000	> 1000	< 10	CC(c1oc(=O)c2ccccc2c1-c1cccc(CN2CCN(C)CC2)c1)n1nc(-c2cc(O)cc(F)c2)c2c(N)ncnc21 (stereo not drawn) [Example 142, 3-(1-(4-amino-3-(3-fluoro-5-hydroxyphenyl)-1H-pyrazolo[3,4-d]pyrimidin-1-yl)ethyl)-4-(3-((4-methylpiperazin-1-yl)methyl)phenyl)-1H-isochromen-1-one]
> 1000	> 1000	> 1000	< 10	CC(c1oc(=O)c2ccccc2c1-c1ccc(CN2CCN(C)CC2)cc1)n1nc(-c2cc(O)cc(F)c2)c2c(N)ncnc21 (stereo not drawn) [Example 139, 3-(1-(4-amino-3-(3-fluoro-5-hydroxyphenyl)-1H-pyrazolo[3,4-d]pyrimidin-1-yl)ethyl)-4-(4-((4-methylpiperazin-1-yl)methyl)phenyl)-1H-isochromen-1-one, dihydrochloride]
> 1000	10 to 1000	10 to 1000	< 10	CC(c1oc(=O)c2ccccc2c1-c1cccc(CCCN(C)C)c1)n1nc(-c2cc(O)cc(F)c2)c2c(N)ncnc21 (stereo not drawn) [Example 137, 3-(1-(4-amino-3-(3-fluoro-5-hydroxyphenyl)-1H-pyrazolo[3,4-d]pyrimidin-1-yl)ethyl)-4-(3-(3-(dimethylamino)propyl)phenyl)-1H-isochromen-1-one, Formic Acid]
> 1000	10 to 1000	10 to 1000	< 10	CC(c1oc(=O)c2ccccc2c1C1=CCN(C2CN(CC3CC3)C2)CC1)n1nc(-c2cc(O)cc(F)c2)c2c(N)ncnc21 (stereo not drawn) [Example 157, 3-(1-(4-amino-3-(3-fluoro-5-hydroxyphenyl)-1H-pyrazolo[3,4-d]pyrimidin-1-yl)ethyl)-4-(1-(1-(cyclopropylmethyl)azetidin-3-yl)-1,2,3,6-tetrahydropyridin-4-yl)-1H-isochromen-1-one dihydrochloride]
> 1000	10 to 1000	10 to 1000	< 10	CC(c1oc(=O)c2ccccc2c1-c1ccccc1)n1nc(I)c2c(N)ncnc21 (stereo not drawn) [Int D2, 3-(1-(4-Amino-3-iodo-1H-pyrazolo[3,4-d]pyrimidin-1-yl)ethyl)-4-phenyl-1H-isochromen-1-one]

— patent US9321776B2, “Isochromene derivatives as phoshoinositide 3-kinases inhibitors” (CHIESI FARMACEUTICI S.p.A., priority 2013, dated 2016)
